Assay results reported in patent US11021481B2, “Substituted isoindolin-1-ones and 2,3-dihydro-1h-pyrrolo[3,4-c]pyridin-1-ones as HPK1 antagonists” (Nimbus Saturn, Inc., priority 2019, dated 2021).

What follows are compounds tested against HPK1 (Homo sapiens (Human), UniProt Q92918) (assay: HPK1 biochemical enzyme assay (microfluidic mobility shift assay)). Settings: 1.5 nM HPK1, ATP 1 mM final, 30 min preincubation, 60 min at RT, Caliper EZ Reader; read-out: HPK1 1000UMATP caliper IC50.
HPK1, sequence (Q92918 whole entry): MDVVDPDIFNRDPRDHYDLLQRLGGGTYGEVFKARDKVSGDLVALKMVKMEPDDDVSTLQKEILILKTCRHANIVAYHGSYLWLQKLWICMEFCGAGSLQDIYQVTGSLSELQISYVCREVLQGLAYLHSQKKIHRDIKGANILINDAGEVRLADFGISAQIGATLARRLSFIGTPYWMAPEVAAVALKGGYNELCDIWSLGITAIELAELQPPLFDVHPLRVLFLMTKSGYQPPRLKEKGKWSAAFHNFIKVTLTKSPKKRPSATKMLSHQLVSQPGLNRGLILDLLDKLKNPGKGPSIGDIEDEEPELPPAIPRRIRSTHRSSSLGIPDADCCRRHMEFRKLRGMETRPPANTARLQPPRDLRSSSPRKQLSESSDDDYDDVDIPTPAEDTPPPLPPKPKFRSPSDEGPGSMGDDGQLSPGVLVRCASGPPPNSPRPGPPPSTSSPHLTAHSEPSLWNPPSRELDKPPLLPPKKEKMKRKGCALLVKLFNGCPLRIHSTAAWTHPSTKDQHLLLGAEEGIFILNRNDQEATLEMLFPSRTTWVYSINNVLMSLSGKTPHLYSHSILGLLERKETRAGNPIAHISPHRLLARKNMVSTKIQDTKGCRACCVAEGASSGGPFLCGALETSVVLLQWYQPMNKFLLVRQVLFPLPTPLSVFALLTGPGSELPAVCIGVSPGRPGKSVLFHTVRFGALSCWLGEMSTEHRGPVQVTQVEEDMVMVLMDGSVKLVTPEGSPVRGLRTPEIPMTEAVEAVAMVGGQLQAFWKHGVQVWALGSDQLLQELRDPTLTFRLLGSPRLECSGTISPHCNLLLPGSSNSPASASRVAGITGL
Summary of the method: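 Ten-point compound titrations (top 3 μM final) preincubated 30 min with HPK1 and substrate, then reaction started with 1 mM ATP and 1 μM substrate, 5 mM MgCl2. After 60 min at RT, reaction terminated and product measured by microfluidic mobility shift.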
In the case of `CN(C)[C@H]1COCCN(c2ccc(Nc3ccc(-c4cnc5cc(F)ccn45)c4c3C(=O)NC4)nc2)C1` [I-519, (R)-7-((5-(6-(dimethylami-no)-1,4-oxazepan-4-yl)pyridin-2-yl)amino)-4-(7-fluoroimidazo [1,2-a]pyridin-3-yl)isoindolin-1-one], the IC50 is reported as less than 100 nM. For `CN1CCc2cc(-c3ccc(Nc4ccc(N5CCC(O)CC5)cn4)c4c3CNC4=O)nn2CC1=O` [I-290, 2-(7-((5-(4-hydroxy-piperidin-1-yl)pyridin-2-yl)amino)-1-oxoisoindolin-4-yl)-6-methyl-5,6-dihydro-4H-pyrazolo[1,5-d][1,4]diaze-pin-7(8H)-one], the IC50 was greater than 1000 nM. For `CN1CCN(c2ccc(Nc3cnc(-c4c[nH]c5cc(OCc6ccccc6)ccc45)c4c3C(=O)NC4)nc2)CC1` [I-260, 4-(6-(benzyloxy)-1H-indol-3-yl)-7-((5-(4-methylpiperazin-1-yl)pyridin-2-yl)amino)-2.3-dihydro-1H-pyrrolo[3,4-c]pyridin-1-one], the IC50 was greater than 1000 nM. With `CN[C@H]1CCCN(c2ccc(Nc3ccc(-c4ccnc5c4ccn5C)c4c3C(=O)NC4)nc2)C1` [I-97, 7-[[5-[(3S)-3-(methylamino)-1-piperidyl]-2-pyridyl]amino]-4-(1-methylpyrrolo [2,3-b]pyridin-4-yl)isoindolin-1-one] the IC50 was less than 100 nM. `CN1CCN(c2cccc(Nc3ccc(-c4ccnc5c4ccn5C)c4c3C(=O)NC4)n2)CC1` [I-247, 7-[[6-(4-methylpiperazin-1-yl)-2-pyridyl]amino]-4-(1-methylpyrrolo [2,3-b]pyridin-4-yl)isoindolin-1-one] gave an IC50 of less than 100 nM. Compound `O=C1NCc2c(-c3cnc4cc(F)ccn34)ccc(Nc3ccc(C4(O)CCOCC4)cn3)c21` [I-371, 4-(7-fluoroimidazo [1,2-a]pyridin-3-yl)-7-((5-(4-hydroxtetra-hydro-2H-pyran-4-yl)pyridin-2-yl)amino)isoin-dolin-1-one] has an IC50 of less than 100 nM. `CN(C)CC1(F)CCCN(c2ccc(Nc3ccc(-c4cnc5cc(F)ccn45)c4c3C(=O)NC4)nc2)C1` (stereo not drawn) [I-503] was tested, and the IC50 was less than 100 nM. `CN(C)Cc1nc(Nc2cnc(-c3ccnc4c3ccn4C)c3c2C(=O)NC3)ccc1O[C@H]1CCOC1` [I-806, (S)-7-((6-((dimetlnlamino)-methyl)-5-((tetrahydrofur-an-3-yl)oxy)pyridin-2-yl)amino)-4-(1-methyl-1H-pyrrolo[2,3-b]pyridin-4-yl)-2,3-dihydro-1H-pyrrolo[3,4-c]pyridin-1-one] showed an IC50 of less than 100 nM. `CC1(O)CCN(c2ccc(Nc3ccc(-c4cnc5cc(F)ccn45)c4c3C(=O)NC4)nc2)CC1` [I-397, 4-(7-fluoroimidazo [1,2-a]pyridin-3-yl)-7-((5-(4-hydroxy-4-methylpiperidin-1-yl)pyridin-2-yl)amino)isoin-dolin-1-one] showed an IC50 of less than 100 nM. `Cc1ccn2c(-c3ccc(Nc4ccc(N5CCO[C@H](C(C)(C)O)C5)cn4)c4c3CNC4=O)cnc2c1` [I-490, 7-[[5-[(2S)-2-(1-hydroxy-1-methylethyl)morpholin-4-yl]-2-pyridyl]amino]-4-(7-methylimidazo [1,2-a]pyridin-3-yl)isoindolin-1-one] showed an IC50 of less than 100 nM. `CN[C@H]1CCN(c2cccc(Nc3cnc(-c4ccnc5c4ccn5C)c4c3C(=O)NC4)n2)C1` [I-245, 7-[[6-[(3S)-3-(methylamino)pyrrolidin-1-yl]-2-pyridyl]amino]-4-(1-methylpyrrolo [2,3-b]pyridin-4-yl)-2,3-dihydropyrrolo [3,4-c]pyridin-1-one] showed an IC50 of less than 100 nM. Compound `O=C1NCc2c(-c3cnc4cc(C(F)(F)F)ccn34)ccc(Nc3ccc(N4CCC(O)CC4)cn3)c21` [I-140] has an IC50 of less than 100 nM. `Cc1cc2c(-c3ncc(Nc4ccc(N5CCC[C@H](C(C)(C)O)C5)cn4)c4c3CNC4=O)ccnc2n1C` [I-229] was tested, and the IC50 was less than 100 nM. `Cn1ccc2c(-c3ncc(Nc4ccc(N5CCNCC5)cn4)c4c3CNC4=O)ccnc21` [I-258, 4-(1-methyl-1H-pyrrolo[2,3-b]pyridin-4-yl)-7-((5-(piperazin-1-yl)pyridin-2-yl)amino)-2,3-dihydro-1H-pyrrolo[3,4-c]pyridin-1-one] was tested, and the IC50 was less than 100 nM. In the case of `Cn1ccc2c(-c3ncc(Nc4cccc(N5CC[C@@H](N6CCCC6)C5)n4)c4c3CNC4=O)ccnc21` [I-431, (R)-7-((6-([1,3-bipyrrolidin]-1-yl)pyridin-2-yl)amino)-1-(1-methyl-1H-pyrrolo[2,3-b]pyridin-4-yl)-2,3-dihydro-1H-pyrrolo[3,4-c]pyridin-1-one], the IC50 is reported as less than 100 nM. Compound `O=C1NCc2c(-c3cnc4cccnn34)ccc(Nc3ccc(N4CCC(O)CC4)cn3)c21` [I-162, 7-[[5-(4-hydroxy-1-piperidyl)-2-pyridyl]amino]-4-imidazo[1,2-b]pyridazin-3-yl-isoindolin-1-one] has an IC50 of less than 100 nM. With `O=C1NCc2c(-c3cnc4cc(Cl)ccn34)ccc(Nc3ccc(N4CCC(O)CC4)cn3)c21` [I-187, 4-(7-chloroimidazo [1,2-a]pyridin-3-yl)-7-[[5-(4-hydroxy-1-piperidyl)-2-pyridyl]amino] isoindolin-1-one] the IC50 was less than 100 nM. `CN(C)CCc1nc(Nc2cnc(-c3ccnc4c3ccn4C)c3c2C(=O)NC3)ccc1C1CCOC1` (stereo in doubt) [I-808, (S)-7-((6-(2-(dimothylami-no)ethyl)-5-(tetrahydrofuran-3-yl)pyridin-2-yl)amino)-4-(1-methyl-1H-pyrrolo[2,3-b]pyridin-4-yl)-2,3-dihydro-1H-pyrrolo[3,4-c]pyridin-1-one] gave an IC50 of less than 100 nM. With `Cc1ccn2c(-c3ccc(Nc4ccc(N5CCC[C@@H](O)C5)cn4)c4c3CNC4=O)cnc2c1` [I-172, 7-[[5-[(3R)-3-hydroxy-1-piperipyl]-2-pyridyl]amino]-4-(7-methylimidazo [1,2-a]pyridin-3-yl)isoindolin-1-one] the IC50 was less than 100 nM. `COCC1CN(c2ccc(Nc3ccc(-c4cnc5nc(C)ccn45)c4c3C(=O)NC4)nc2)CCO1` (stereo in doubt) [I-628, (R)-7-((5-(2-(methoxymeth-yl)morpho-lino)pyridin-2-yl)amino)-4-(7-methylimidazol',2-a]pyriinidin-3-yl)isoindolin-1-one] showed an IC50 of less than 100 nM. For `Cn1ccc2c(-c3ccc(Nc4ccc(N5CCC(O)CC5)cn4)c4c3CNC4=O)ccnc21` [I-75, 7-[[5-(4-hydroxy-1-piperidyl)-2-pyridyl]amino]-4-(1-methylpyrrolo [2,3-b]pyridin-4-yl)isoindolin-1-one], the IC50 was less than 100 nM. `CN1CCN(c2ccc(Nc3cnc(-c4cnc5c(F)cccn45)c4c3C(=O)NC4)nc2)CC1C(C)(C)O` (stereo in doubt) [I-622, (S)-4-(8-fluoroimidazo [1,2-a]pyridin-3-yl)-7-((5-(3-(2-hydroxypropan-2-yl)-4-methylpiperazin-1-yl)pyridin-2-yl)amino)-2.3-dihydro-1H-pyrrolo[3,4-c]pyridin-1-one] was tested, and the IC50 was less than 100 nM. Work on `COCCN(C)Cc1nc(Nc2ccc(-c3cnc4cc(F)ccn34)c3c2C(=O)NC3)ccc1C1CCOC1` (stereo in doubt) [I-728, (S)-4-(7-fluoroimidazo [1,2-a]pyridin-3-yl)-7-(6-(((2-methoxyethyl) (methyl)-amino)methyl)-5-(tetrahydrofuran-3-yl)pyridin-2-yl)amino)isoin-dolin-1-one] yielded an IC50 of less than 100 nM. Work on `O=C1NCc2c(-c3cnc4cc(F)ccn34)ccc(Nc3cccc(N4CC(O)C4)n3)c21` [I-323, 4-(7-fluoroimidazo [1,2-a]pyridin-3-yl)-7-((6-(3-hydroxyazeti-din-1-yl)pyridin-2-yl)amino)isoin-dolin-1-one] yielded an IC50 greater than 1000 nM. `CC(C)(O)[C@@H]1CN(c2ccc(Nc3ccc(-c4cnc5cc(F)ccn45)c4c3C(=O)NC4)nc2)CCO1` [I-344] gave an IC50 of less than 100 nM. With `Cn1ccc2c(-c3ncc(Nc4ccc(N5C[C@@H]6C[C@H]5CO6)cn4)c4c3CNC4=O)ccnc21` [I-309, 7-((5-((1S,4S)-2-oxa-5-azabicyclo[2.2.1]heptan-5-yl)pyridin-2-yl)amino)-4-(1-methyl-1H-pyrrolo[2,3-b]pyridin-4-yl)-2,3-dihydro-1H-pyrrolo[3,4-c]pyridin-1-one] the IC50 was less than 100 nM. For `CN1CCN(c2ccc(Nc3ccc(-c4ccn5ncccc45)c4c3C(=O)NC4)nc2)CC1` [I-256, 7-((5-(4-methylpiperazin-1-yl)pyridin-2-yl)amino)-4-(pyrrolo[1,2-b]pyridazin-5-yl)isoindolin-1-one], the IC50 was less than 100 nM. `O=C1NCc2c(-c3cnc4cc(F)ccn34)ccc(Nc3ccc(N4CC[C@H](F)[C@@H](O)C4)cn3)c21` [I-346, 7-((5-((3S.4S)-4-fluoro-3-hydroxypiperidin-1-yl)pyridin-2-yl)amino)-4-(7-fluoroimidazo [1,2-a]pyridin-3-yl)isoindolin-1-one] was tested, and the IC50 was less than 100 nM. `CC(C)([C@H]1CN(c2ccc(Nc3ccc(-c4cnc5cc(F)ccn45)c4c3C(=O)NC4)nc2)CCO1)N1CC(O)C1` [I-698] showed an IC50 of less than 100 nM. Compound `COC[C@]1(O)CCCN(c2ccc(Nc3ccc(-c4cnc5cc(F)ccn45)c4c3C(=O)NC4)nc2)C1` [I-393, (S)-4-(7-fluoroimidazo [1,2-a]pyridin-3-yl)-7-((5-(3-hydroxy-3-(methoxymeth-yl)piperidin-1-yl)pyridin-2-yl)amino)isoin-dolin-1-one] has an IC50 of less than 100 nM. Compound `O=C1NCc2c(-c3ccnn4ccnc34)ncc(Nc3ccc(N4CCC(O)CC4)cn3)c21` [I-565, 7-((5-(4-hydroxypiperidin-1-yl)pyridin-2-yl)amino)-4-(imidazo[1,2-b]pyridazin-8-yl)-2,3-dihydro-1H-pyrrolo[3,4-c]pyridin-1-one] has an IC50 greater than 1000 nM. `CN1CCN(c2ccc(Nc3ccc(-c4c[nH]c5ncccc45)c4c3C(=O)NC4)nc2)CC1` [I-21, 7-[[5-(4-methylpiperazin-1-yl)-2-pyridyl]amino]-4-(1H-pyrrolo[2,3-b]pyridin-3-yl)-isoindolin-1-one] showed an IC50 of less than 100 nM. With `O=C1NCc2c(-c3cnc4cc(F)ccn34)ccc(Nc3ccc(N4CCOC[C@H](O)C4)cn3)c21` [I-338, (R)-4-(7-fluoroimidazo [1,2-a]pyridin-3-yl)-7-((5-(6-hydroxy-1,4-oxazepan-4-yl)pyridin-2-yl)amino)isoin-dolin-1-one] the IC50 was less than 100 nM.
